Test results taken from PubChem BioAssay (NCI).
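Step 1: Grow cells in 96-well plates. Step 2: Expose to compound for 48 hours at 5 concentrations. Step 3: Interpolate endpoints linearly; if unreached, use highest concentration. TGI: concentration producing complete growth inhibition.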

Tests used:
Experiment in all cases: DTP human tumour cell line panel, 48 h
[1] = test system: NCI-H522 lung
[2] = test system: SNB-19 CNS
[3] = test system: HCT-15 colon
[4] = test system: MALME-3M melanoma
[5] = test system: OVCAR-8 ovarian
[6] = test system: HOP-92 NSCLC
[7] = test system: PC-3 prostate
[8] = test system: DU-145 prostate
[9] = test system: NCI-H226 lung
[10] = test system: EKVX NSCLC
[11] = test system: BT-549 breast
[12] = test system: ACHN renal
[13] = test system: SNB-75 CNS
[14] = test system: HS 578T breast
[15] = test system: NCI-H23 lung
[16] = test system: CAKI-1 renal
[17] = test system: SK-OV-3 ovarian
[18] = test system: SF-268 CNS
[19] = test system: HCT-116 colon
[20] = test system: COLO 205 colon
[21] = test system: SN12C renal
[22] = test system: LOX IMVI melanoma
[23] = test system: TK-10 renal
[24] = test system: A549 NSCLC
[25] = test system: HOP-62 NSCLC
[26] = test system: UACC-62 melanoma
[27] = test system: NCI-H460 lung
[28] = test system: MDA-N
[29] = test system: SK-MEL-28 melanoma
[30] = test system: A498 renal
[31] = test system: SF-295 CNS
[32] = test system: IGROV1 ovarian
[33] = test system: SF-539 CNS
[34] = test system: HCC-2998 colon
[35] = test system: KM12 colon
[36] = test system: U251 CNS
[37] = test system: HT29 colon
[38] = test system: MDA-MB-435
[39] = test system: HL-60(TB) leukemia
[40] = test system: CCRF-CEM leukemia
[41] = test system: K-562 leukemia
[42] = test system: UACC-257 melanoma
[43] = test system: RXF 393 renal
[44] = test system: OVCAR-5 ovarian
[45] = test system: T-47D breast
[46] = test system: RPMI-8226 leukemia
[47] = test system: UO-31 renal
[48] = test system: SR leukemia
[49] = test system: SK-MEL-5 melanoma
[50] = test system: SW-620 colon
[51] = test system: MCF7 breast
[52] = test system: OVCAR-4 ovarian
[53] = test system: 786-0 renal
[54] = test system: M14 melanoma
[55] = test system: OVCAR-3 ovarian
[56] = test system: SK-MEL-2 melanoma
[57] = test system: MDA-MB-231 breast

COC(=O)C1=C2Nc3ccccc3C23CCN2C(O)C4(CC5CC67CCOC6CCN6CCC8(c9cccc(OC)c9N(C4)C58O)C67)C4OCCC4(C1)C23 (configuration not stated)
TGI [1]: > 100 µM | TGI [2]: > 100 µM | TGI [3]: > 100 µM | TGI [4]: > 100 µM | TGI [5]: 61.3 µM | TGI [6]: 87.7 µM | TGI [7]: > 100 µM | TGI [8]: > 100 µM | TGI [9]: > 100 µM | TGI [10]: > 100 µM | TGI [11]: > 100 µM | TGI [12]: > 100 µM | TGI [13]: 68.3 µM | TGI [14]: 77.5 µM | TGI [15]: > 100 µM | TGI [16]: > 100 µM | TGI [17]: > 100 µM | TGI [18]: > 100 µM | TGI [19]: > 100 µM | TGI [20]: > 100 µM | TGI [21]: > 100 µM | TGI [22]: > 100 µM | TGI [23]: > 100 µM | TGI [24]: > 100 µM | TGI [25]: > 100 µM | TGI [26]: > 100 µM | TGI [27]: > 100 µM | TGI [28]: > 100 µM | TGI [29]: > 100 µM | TGI [30]: > 100 µM | TGI [31]: > 100 µM | TGI [32]: > 100 µM | TGI [33]: > 100 µM | TGI [34]: > 100 µM | TGI [35]: > 100 µM | TGI [36]: > 100 µM | TGI [37]: > 100 µM | TGI [38]: > 100 µM | TGI [39]: > 100 µM | TGI [40]: > 100 µM | TGI [41]: > 100 µM | TGI [42]: > 100 µM | TGI [43]: > 100 µM | TGI [44]: > 100 µM | TGI [45]: 55.7 µM | TGI [46]: > 100 µM | TGI [47]: > 100 µM | TGI [48]: > 100 µM | TGI [49]: > 100 µM | TGI [50]: > 100 µM | TGI [51]: > 100 µM | TGI [52]: > 100 µM | TGI [53]: 50.5 µM | TGI [54]: > 100 µM | TGI [55]: > 100 µM | TGI [56]: > 100 µM | TGI [57]: 61.3 µM
